Measurements published in patent US7041681B2, “Compounds as opioid receptor modulators” (Janssen Pharmaceutica N.V., priority 2002, dated 2006).

Experiments:
mu opioid receptor = target: T1, mu opioid receptor (Rattus norvegicus, UniProt P33535); assay: Rat Brain mu Opioid Receptor Binding Assay; details: rat forebrain membranes, ~0.8 nM [3H]DAMGO, 25° C., 2.5 h; read-out: μ-opioid binding (Ki)
T1 construct: from tissue; host or cells: rat forebrain homogenate (Wistar rat)
Description: (§1) Male, Wistar rats (150–250 g, VAF, Charles River, Kingston, N.Y.) are killed by cervical dislocation, and their brains removed and placed immediately in ice cold Tris HCl buffer (50 mM, pH 7.4). The forebrains are separated from the remainder of the brain by a coronal transection, beginning dorsally at the colliculi and passing ventrally through the midbrain-pontine junction. After dissection, the forebrains are homogenized in Tris buffer in a Teflon®-glass homogenizer. The homogenize is diluted to a concentration of 1 g of forebrain tissue per 80 mL Tris and centrifuged at 39,000×g for 10 min. The pellet is resuspended in the same volume of Tris buffer containing 5 mM MgCl2 with several brief pulses from a Polytron homogenizer. This particulate preparation is used for the mu-opioid binding assays. Following incubation with the mu selective peptide ligand ˜0.8 nM [^3H]DAMGO at 25° C. for 2.5 h in a 96-well plate with total 1 ml, the plate contents are filtered through Wallac filtermat B sheets on a Tomtec 96-well harvester. The filters are rinsed three times with 2 mL of 10 mM HEPES (pH7.4), and dried in a microwave oven 1:45 min twice. To each sample area 2×40 μl of Betaplate Scint scintillation fluid (LKB) is added and analyzed on a LKB (Wallac) 1205 BetaPlate liquid scintillation counter.
(§2) The data are used to calculate either the % inhibition compared to control binding (when only a single concentration of test compound is evaluated) or a Ki value (when a range of concentrations is tested). % inhibition is calculated as: [(total dpm-test compound dpm dpm)/(total dpm-nonspecific dpm)]*100. Kd and Ki values were calculated using GraphPad PRISM data analysis program.

delta opioid receptor = target: T2, delta opioid receptor (Rattus norvegicus, UniProt P33533); assay: Rat Brain Delta Opioid Receptor Binding Assay; details: rat forebrain membranes, ~4 nM [3H]DPDPE, 25° C., 2.5 h; read-out: δ-opioid binding (Ki)
T2 construct: from tissue; host or cells: rat forebrain homogenate (Wistar rat)
T2 sequence (P33533 whole entry): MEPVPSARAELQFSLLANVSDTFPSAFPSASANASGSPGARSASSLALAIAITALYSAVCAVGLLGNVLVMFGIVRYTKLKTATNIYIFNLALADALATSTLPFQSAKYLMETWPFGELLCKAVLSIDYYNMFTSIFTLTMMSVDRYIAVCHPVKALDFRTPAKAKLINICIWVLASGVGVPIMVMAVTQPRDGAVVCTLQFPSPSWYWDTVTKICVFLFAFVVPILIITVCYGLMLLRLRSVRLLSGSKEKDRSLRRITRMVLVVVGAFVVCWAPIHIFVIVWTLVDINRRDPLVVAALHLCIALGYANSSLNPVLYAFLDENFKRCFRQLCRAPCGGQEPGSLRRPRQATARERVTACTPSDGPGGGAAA
Description: as §1, with “delta opioid” for “mu-opioid”, “delta” for “mu”, “˜4” for “˜0.8”, “[^3H]DPDPE” for “[^3H]DAMGO”, “total volume of” for “total”
as §2

T1 sequence (P33535 whole entry): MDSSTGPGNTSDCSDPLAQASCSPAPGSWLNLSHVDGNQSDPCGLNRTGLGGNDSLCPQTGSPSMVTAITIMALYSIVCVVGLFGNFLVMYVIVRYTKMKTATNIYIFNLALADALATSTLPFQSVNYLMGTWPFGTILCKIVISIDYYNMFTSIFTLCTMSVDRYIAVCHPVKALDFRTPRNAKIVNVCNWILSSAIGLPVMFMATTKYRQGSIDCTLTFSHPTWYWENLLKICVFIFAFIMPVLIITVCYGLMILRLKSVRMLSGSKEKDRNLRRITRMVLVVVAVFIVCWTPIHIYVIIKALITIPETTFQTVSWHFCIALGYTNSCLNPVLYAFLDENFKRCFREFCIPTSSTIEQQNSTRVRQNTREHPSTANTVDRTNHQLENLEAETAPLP

SMILES	Ki (mu opioid receptor) [nM]	Ki (delta opioid receptor) [nM]
N[C@@H](Cc1ccc(C(=O)Nc2ccccc2)cc1)C(=O)N1CCCC[C@H]1c1nc(-c2ccccc2)c[nH]1 [Cmpd 13]	27.7	656
COc1cc(C)c(CC(N)C(=O)N2Cc3ccccc3CC2c2nc(-c3ccccc3)c[nH]2)c(C)c1 (stereo not shown) [Cmpd 147]	150	43
Cc1cc(OC(=O)C(C)(C)C)cc(C)c1C[C@H](N)C(=O)N1Cc2ccccc2C[C@H]1c1nc(-c2ccccc2)c[nH]1 [Cmpd 116]	9.6	3.5
N[C@@H](Cc1ccc(O)c([N+](=O)[O-])c1)C(=O)N1Cc2ccccc2C[C@H]1c1nc(-c2ccccc2)c[nH]1 [Cmpd 129]	25700	50000
CC(=O)Oc1cc(C)c(CC(N)C(=O)N2Cc3ccccc3CC2c2nc(-c3ccccc3)c[nH]2)c(C)c1 (stereo not shown) [Cmpd 113]	0.5	0.2
Cc1cc(C(N)=O)cc(C)c1C[C@H](N)C(=O)N1Cc2ccccc2C[C@H]1c1nc(-c2ccccc2)c[nH]1 [Cmpd 105]	1.44	0.06
CN[C@@H](Cc1ccc(OC(=O)C(C)(C)C)cc1)C(=O)N1Cc2ccccc2C[C@H]1c1nc(-c2ccccc2)c[nH]1 [Cmpd 128]	213	5.2
N[C@@H](Cc1cc(F)c(O)c(F)c1)C(=O)N1CCCC[C@H]1c1nc(-c2ccccc2)c[nH]1 [Cmpd 24]	9.27	5660
CCNC(=O)c1ccc(C[C@H](N)C(=O)N2CCCC[C@H]2c2nc(-c3ccccc3)c[nH]2)cc1 [Cmpd 1]	0.15	20.9
CC(C)NC(Cc1ccc(O)cc1)C(=O)N1Cc2ccccc2CC1c1nc(-c2ccccc2)c[nH]1 (stereo not shown) [Cmpd 138]	10000	397
CN(C)C(=O)c1ccc(C[C@H](N)C(=O)N2CCCC[C@H]2c2nc(-c3ccccc3)c[nH]2)cc1 [Cmpd 4]	135	764
Cc1cc(O)cc(C)c1CC(N)C(=O)N1CCCCC1c1nc(-c2ccccc2)no1 (stereo not shown) [Cmpd 19]	0.14	46.3
Nc1ccc(CC(N)C(=O)N2CCCCC2c2nc(-c3ccccc3)c[nH]2)cc1 (stereo not shown) [Cmpd 30]	57.2	1020
N#Cc1cccc(C[C@H](N)C(=O)N2CCCC[C@H]2c2nc(-c3ccccc3)c[nH]2)c1 [Cmpd 8]	207	10000
CNC(Cc1ccc(O)cc1)C(=O)N1Cc2ccccc2CC1c1nc(-c2ccccc2)c(C)[nH]1 (stereo not shown) [Cmpd 155]	23.2	0.44
CN(C)C(=O)c1ccc(C[C@H](N)C(=O)N2Cc3ccccc3C[C@H]2c2nc(-c3ccccc3)c[nH]2)cc1 [Cmpd 103]	900	578
CS(=O)(=O)Nc1ccc(CC(N)C(=O)N2Cc3ccccc3CC2c2nc(-c3ccccc3)c[nH]2)cc1 (stereo not shown) [Cmpd 114]	356	342
CNC(Cc1ccc(O)cc1)C(=O)N1Cc2ccccc2CC1c1nc(-c2ccccc2)c[nH]1 (stereo not shown) [Cmpd 145]	59.1	1.18
CC(N)(Cc1ccc(O)cc1)C(=O)N1CCCCC1c1nc(-c2ccccc2)c[nH]1 (stereo not shown) [Cmpd 25]	1.69	107
N[C@@H](Cc1ccc(O)c([N+](=O)[O-])c1)C(=O)N1CCCC[C@H]1c1nc(-c2ccccc2)c[nH]1 [Cmpd 17]	320	5120
CC(=O)Nc1ccc(C[C@H](N)C(=O)N2Cc3ccccc3C[C@H]2c2nc(-c3ccccc3)c(C)[nH]2)cc1 [Cmpd 141]	207	34
NC(=O)c1cccc(CC(N)C(=O)N2CCCCC2c2nc(-c3ccccc3)c[nH]2)c1 (stereo not shown) [Cmpd 7]	88.3	6070
Cc1cc(C(N)=O)cc(C)c1CC(N)C(=O)N1CCCCC1c1nc(-c2ccccc2)c[nH]1 (stereo not shown) [Cmpd 6]	0.13	13.9
CN1CCN(C(=O)c2ccc(C[C@H](N)C(=O)N3CCCC[C@H]3c3nc(-c4ccccc4)c[nH]3)cc2)CC1 [Cmpd 3]	10000	10000
N[C@@H](Cc1ccc(S(N)(=O)=O)cc1)C(=O)N1CCCC[C@H]1c1nc(-c2ccccc2)c[nH]1 [Cmpd 5]	40.8	6180

SMILES	Ki (mu opioid receptor) [nM]	Ki (delta opioid receptor) [nM]
Cc1cc(O)cc(C)c1C[C@H](N)C(=O)N1CCCC[C@@H]1c1nc(-c2ccccc2)c[nH]1 [Cmpd 158]	0.15	5.43
O=C([C@H](Cc1ccc(O)cc1)NCc1ccccc1)N1Cc2ccccc2C[C@@H]1c1nc(-c2ccccc2)c[nH]1 [Cmpd 134]	329	10000
CN[C@@H](Cc1c(C)cc(O)cc1C)C(=O)N1Cc2ccccc2C[C@H]1c1nc(-c2ccccc2)c[nH]1 [Cmpd 127]	7.1	0.4
NCc1ccc(C[C@H](N)C(=O)N2CCCC[C@H]2c2nc(-c3ccccc3)c[nH]2)cc1 [Cmpd 18]	409	7520
NC(Cc1ccc(C(=O)NCCO)cc1)C(=O)N1CCCCC1c1nc(-c2ccccc2)c[nH]1 (stereo not shown) [Cmpd 14]	9.3	5140
Cc1[nH]c([C@@H]2Cc3ccccc3CN2C(=O)[C@@H](N)Cc2ccc([N+](=O)[O-])cc2)nc1-c1ccccc1 [Cmpd 120]	1350	674
N[C@@H](Cc1ccc(O)cc1)C(=O)N1CCCC[C@@H]1c1cccc(-c2ccccc2)c1 [Cmpd 31]	565	10000
N#Cc1ccc(CC(N)C(=O)N2Cc3ccccc3CC2c2nc(-c3ccccc3)c[nH]2)cc1 (stereo not shown) [Cmpd 160]	1340	752
N#Cc1ccc(C[C@H](N)C(=O)N2CCCC[C@H]2c2nc(-c3ccccc3)c[nH]2)cc1 [Cmpd 35]	869	476
CNC(=O)c1ccc(C[C@H](N)C(=O)N2CCCC[C@H]2c2nc(-c3ccccc3)c[nH]2)cc1 [Cmpd 21]	0.22	33.9
N[C@@H](Cc1ccc(C(=O)O)cc1)C(=O)N1CCCC[C@H]1c1nc(-c2ccccc2)c[nH]1 [Cmpd 9]	26.8	606
NC(Cc1ccc(C(=O)NCCO)cc1)C(=O)N1Cc2ccccc2CC1c1nc(-c2ccccc2)c[nH]1 (stereo not shown) [Cmpd 112]	92.3	43.7
CN1CCN(C(=O)c2ccc(C[C@H](N)C(=O)N3Cc4ccccc4C[C@H]3c3nc(-c4ccccc4)c[nH]3)cc2)CC1 [Cmpd 102]	1240	5350
Cc1cc(O)cc(C)c1C[C@H](N)C(=O)N1Cc2ccccc2C[C@H]1c1nc(-c2ccccc2)c(C)[nH]1 [Cmpd 149]	3	0.8
CN[C@@H](Cc1c(C)cc(OC)cc1C)C(=O)N1CCCC[C@H]1c1nc(-c2ccccc2)c[nH]1 [Cmpd 33]	42.9	273
COc1cc(C)c(C[C@H](N)C(=O)N2CCCC[C@H]2c2nc(-c3ccccc3)c[nH]2)c(C)c1 [Cmpd 27]	8.56	1000
CNC(=O)c1ccc(C[C@H](N)C(=O)N2Cc3ccccc3C[C@H]2c2nc(-c3ccccc3)c[nH]2)cc1 [Cmpd 117]	23.6	1.61
CN[C@@H](Cc1ccc(O)cc1)C(=O)N1Cc2ccccc2C[C@H]1c1nc(-c2ccccc2)c(C)[nH]1 [Cmpd 157]	30	0.57
N[C@@H](Cc1ccc(O)cc1)C(=O)N1CCCC[C@H]1c1cccc(-c2ccccc2)c1 [Cmpd 32]	541	5900
COc1ccc(CC(N)C(=O)N2Cc3ccccc3CC2c2nc(-c3ccccc3)c(C)[nH]2)cc1 (stereo not shown) [Cmpd 154]	10000	10000
Cc1cc(O)cc(C)c1C[C@H](NC=O)C(=O)N1CCCC[C@H]1c1nc(-c2ccccc2)c[nH]1 [Cmpd 37]	13.3	5230
Cc1cc(O)cc(C)c1C[C@H](N)C(=O)N1Cc2ccccc2C[C@H]1c1nc(-c2ccccc2)c(Br)[nH]1 [Cmpd 132]	0.17	0.1
N[C@@H](Cc1ccc(O)cc1)C(=O)N1CCCC[C@H]1c1nc(-c2ccccc2)no1 [Cmpd 20]	231	10000
N[C@@H](Cc1cccc(O)c1)C(=O)N1Cc2ccccc2C[C@H]1c1nc(-c2ccccc2)c[nH]1 [Cmpd 161]	480	133
Cc1cc(O)cc(C)c1CC(N)C(=O)N1CCCCC1c1nc(-c2ccccc2)c[nH]1 (stereo not shown) [Cmpd 34]	0.05	1.86
